Experimental data as given in PMC8842601, “Antimicrobial, Cytotoxic and Oxidative Stress Inhibitory Activities of Terpenoids and Flavonols from Senegalia nigrescens (Oliv.) P.J.H. Hurter” (Iranian Journal of Pharmaceutical Research : IJPR, 2021).
Values after ≈ are worked out from the molar mass of the structure shown.

Columns and labels:
[1] = system: MDA-MB-231 cells; assay: MTT cytotoxicity assay on breast cancer cells; format: cell-based, human; details: for IC50: Homo sapiens, MDA-MB-231 breast cancer cells, MTT, 24 h; for selectivity index (SI): toxicity on RAW264.7 compared to MDA-MB-231 cancer cells
Protocol: (§1) Cytotoxicity and antiproliferative effects of compounds were evaluated against Murine macrophage cells (RAW264.7) and breast adenocarcinoma cancer cells (MDA-MB-231) using the spectrophotometric, 3-(4,5-dimethylthiazol-2-yl)-2,5-diphenyltetrazolium bromide (MTT) assay ([16]). Cells (5 × 10^4 cell/well) were seeded in Dulbecco’s modified eagle’s medium (DMEM; Gibco) in a 96 well plate for 24 h incubation at 37 °C in 5% CO2 and treated with compounds (2.5 - 200 µg/mL) and positive control, Doxorubicin (2.5 - 200 µM). Untreated cells and 5% DMSO treated cells were assayed as negative and solvent control, respectively. After 24 h incubation, 20 µL MTT dye (5 mg/mL) was pipetted in all wells including wells with untreated cells, and incubated for 4 h. The medium was aspirated and 100 µL of DMSO was added to all the wells to dissolve the formazan crystals and the optical density (OD) was measured after an hour at 570 nm using a microplate reader.

[2] = system: RAW264.7 cells; assay: MTT cytotoxicity assay on normal macrophage cells; format: cell-based; details: Mus musculus, RAW264.7 normal murine macrophage cells, 24 h
Protocol: as §1

[3] = system: RAW264.7 cells; assay: LPS-induced intracellular ROS production (H2DCF-DA assay); format: cell-based, murine; details: RAW264.7, compound 10 µg/mL, LPS 10 µg/mL; for ROS production level: relative to LPS-treated cells
Protocol: Lipopolysaccharide (LPS)-induced reactive oxygen species (ROS) production was probed using an oxidative cell-permeant fluorescent dye 2',7'-dichlorodihydrofluorescein diacetate (H2DCF-DA) ([17]). RAW264.7 cells (5 × 10^4 cells/well) were seeded overnight into a 96 well plate and treated with compounds (10 µg/mL) at concentrations ≤ IC50 values and LPS (10 µg/mL) for 24 h at 37 °C in 5% CO2 rich incubator, then 10 μM H2DCF-DA dye (100 µL) was added for an hour. The fluorescence intensity which correlates to ROS production was measured on a microplate reader at 485 and 535 nm excitation and emission, respectively. Data obtained were subjected to analysis using GraphPad Prism (version 8.2).
Inflammation is a physiological response stimulated by the organism as a way of overcoming pathogenic events employed as a defense mechanism. However, an unregulated inflammatory response can lead to several diseases, including cancer. ROS-inducing approaches rely on the fact that increasing the ROS level over the cytotoxic threshold can result in cellular impairment, damaging DNA, RNA, proteins and lipids in normal cells, even though macrophage cells cannot phagocytize cancerous cells, but release a reasonable amount of pro-inflammatory cytokines that quench cancer cells yet are cytoprotective to normal cells ([6]). In this regard, it was considered that the compounds tested would be able to reduce the production of LPS-induced ROS in normal macrophages. Determination of ROS production in RAW264.7 cells was conducted using the non-toxic IC50 value of 10 µg/mL for all compounds (Table 2). Cells were pre-treated with compounds for 20 h and LPS was added in all treated cells except the untreated control cells. Thereafter H2DCFDA was introduced to the cells. […]
Figure 3 Effects of S. nigrescens compounds 1-6 on LPS-induced ROS production by RAW264.7 cells measured by a micro plate reader (Thermo Scientific Varioskan Flash). […] Experiments were conducted in triplicate and data is expressed as the mean ± SD with p-values calculated against control ^**p < 0.01; ^***p < 0.001

[4] = system: Staphylococcus aureus ATCC 25923; assay: Microplate serial dilution MIC assay (resazurin); format: cell-based; details: ATCC25923, S. aureus ATCC 25923, 24 h at 37 °C, tested 7.8-1000 µg/mL
Protocol: (§2) Three microorganisms used in this study, two bacterial strains (Escherichia coli ATCC 25922 - Gram-negative and Staphylococcus aureus ATCC 25923 - Gram-positive) and a fungus (Candida albicans ATCC 10231) were procured from Anatech Instruments (Pty) Ltd, Randburg, Gauteng, South Africa (Anatech, Kwik-stick®). Escherichia coli and S. aureus were cultured in nutrient agar while the fungus (C. albicans ATCC 10231) was cultured on sabouraud dextrose agar (SDA) and incubated for 24 h under aerobic conditions at 37 °C. Pure colonies of microorganisms from the agar were transferred onto nutrient broth and sabouraud dextrose broth (SDB) to obtain an overnight culture. Compounds 1 – 6 were weighed and dissolved in 5% Dimethyl sulfoxide (DMSO) to a final working stock solution of 4 mg/mL. Standard antibiotics Ciprofloxacin and Amphotericin-B were also dissolved in 5% DMSO. The samples were kept at 20 °C in the dark until used. Antimicrobial activity was done using the microplate serial dilution method by Eloff, ([14]). The minimum inhibitory concentration (MIC) was defined as the lowest concentration of the compound capable of inhibiting microbial growth. The microorganisms were adjusted according to 0.5 McFarland standard solution to a final concentration of 1.5 × 10^4 CFU/mL in sterile 0.85% sodium chloride (NaCl) solution. Compounds were tested at the concentration range of 7.8-1000 µg/mL in 96 well plates and incubated with microorganisms for 24 h at 37 °C. Ciprofloxacin and Amphotericin-B were used as positive controls for bacterial and fungal assays, respectively. In addition, sterile distilled 5% DMSO was used as a negative control. A staining reagent, 50 µL Resazurin sodium salt (0.2 mg/mL) was used as an indicator of microbial growth and the MIC was visually determined ([15]).

[5] = system: Candida albicans ATCC 10231; assay: Microplate serial dilution MIC assay (resazurin); format: cell-based; details: ATCC10231, C. albicans ATCC 10231, 24 h at 37 °C, tested 7.8-1000 µg/mL
Protocol: as §2

[6] = system: Escherichia coli ATCC 25922; assay: Microplate serial dilution MIC assay (resazurin); format: cell-based; details: ATCC25922, E. coli ATCC 25922, 24 h at 37 °C, tested 7.8-1000 µg/mL
Protocol: as §2

[7] = system: S. aureus; set-up: method as in PMID 35914415; details: reducing cell surface hydrophobicity and membrane permeability; cited from earlier work
[8] = system: Escherichia coli, Staphylococcus aureus and Candida albicans; assay: Microplate serial dilution MIC assay, stated across the three strains; format: cell-based; details: across the three strains (E. coli, S. aureus, C. albicans)
Protocol: as §2, with “The microorganisms were adjusted according to 0.5 McFarland standard solution to a final concentration of 1.5 × 10^4 CFU/mL in sterile 0.85% sodium chloride (NaCl) solution. Compounds were tested at the concentration range of 7.8-1000 µg/mL in 96 well plates and incubated with microorganisms for 24 h at 37 °C. Ciprofloxacin and Amphotericin-B were used as positive controls for bacterial and fungal assays, respectively. In addition, sterile distilled 5% DMSO was used as a negative control.” left out

[9] = system: LPS-induced RNS; set-up: method as in PMID 18254591, PMID 30302324; details: read-out: IC50, inhibition of LPS-induced RNS; cited from earlier work
[10] = system: LPS-induced ROS; set-up: method as in PMID 18254591, PMID 30302324; details: read-out: IC50, inhibition of LPS-induced ROS; cited from earlier work

Row | Compound | IC50 [1] | selectivity index (SI) [1] | IC50 [2] | ROS production level [3] | MIC [4] | MIC [5] | MIC [6] | MIC [7] | MIC [8] | IC50 [9] | IC50 [10] | reduction of ROS [3]
1 | COc1cccc2c1C(=O)c1c(O)c3c(c(O)c1C2=O)C[C@@](O)(C(=O)CO)C[C@@H]3O[C@H]1C[C@H](N)[C@H](O)[C@H](C)O1 [doxorubicin, reference compound] | 9.35 µg/mL (≈ 17.2 µM) | 1.13 | 10.6 µg/mL (≈ 19.5 µM) | – | – | – | – | – | – | – | – | –
2 | COc1c(-c2ccc(O)c(O)c2)oc2cc(O)cc(O)c2c1=O [Compound 6, quercetin-3-O-methyl ether] | 14 µg/mL (≈ 44.4 µM) | 2.04 | 28.7 µg/mL (≈ 90.8 µM) | below 50% | 31.2 µg/mL (≈ 98.8 µM) | 31.2 µg/mL (≈ 98.8 µM) | 62.5 µg/mL (≈ 198 µM) | – | – | – | – | –
3 | O=c1cc(-c2ccc(O)cc2)oc2c([C@@H]3O[C@H](CO)[C@@H](O)[C@H](O)[C@H]3O)c(O)cc(O)c12 [Apigenin-8-C-glucoside] | – | – | – | – | – | – | – | 126 µg/mL (≈ 291 µM) | – | – | – | –
4 | C=C(CO)C1CCC2(C)CCC3(C)C(CCC4C5(C)CCC(O)C(C)(C)C5CCC43C)C12 (stereo not drawn) [Compound 2, 30-hydroxylup-20(29)-en-3β-ol] | 11.9 µg/mL (≈ 26.8 µM) | 1.92 | 22.8 µg/mL (≈ 51.5 µM) | – | – | – | – | – | ≥ 250 µg/mL | – | – | –
5 | O=c1c(O)c(-c2ccc(O)c(O)c2)oc2cc(O)cc(O)c12 [Compound 5, quercetin] | 20.6 µg/mL (≈ 68.2 µM) | 1.09 | 22.6 µg/mL (≈ 74.8 µM) | below 50% | 31.2 µg/mL (≈ 103 µM) | 31.2 µg/mL (≈ 103 µM) | 62.5 µg/mL (≈ 207 µM) | – | – | – | – | –
6 | O=c1c(O)c(-c2ccc(O)c(O)c2)oc2c(O)c(O)ccc12 [Compound 4, melanoxetin] | 22.2 µg/mL (≈ 73.4 µM) | – | 15.8 µg/mL (≈ 52.3 µM) | – | – | – | – | – | – | 6.9 µM | 12.5 µM | approximately 40%
7 | CC1=CC23CCC4C(C)(CO)CCCC4(CO)C2CCC1C3 (stereo not drawn) [Compound 3, ent-kaur-15-en-18,20-diol] | 12.6 µg/mL (≈ 41.4 µM) | 1.46 | 18.5 µg/mL (≈ 60.8 µM) | – | 125 µg/mL (≈ 411 µM) | 62.5 µg/mL (≈ 205 µM) | 250 µg/mL (≈ 821 µM) | – | – | – | – | –
8 | C=C(C=O)C1CCC2(C)CCC3(C)C(CCC4C5(C)CCC(O)C(C)(C)C5CCC43C)C12 (stereo not drawn) [Compound 1, 3β-hydroxy-20(29)-en-lupan-30-al] | 26.6 µg/mL (≈ 60.5 µM) | – | 16.9 µg/mL (≈ 38.3 µM) | – | – | – | – | – | ≥ 250 µg/mL | – | – | –
